# According to patent US20070258989A1, “Immunomodulatory pharmaceutical composition and a process for preparation thereof” (Council of Scientific and Industrial Research, priority 2005, published 2007):
# How the values were obtained:
# [1] = test system: Normal Mice (Mus musculus); test: Immunostimulant (humorral) activity: haemagglutination (HA) antibody titre after immunisation with rabbit RBC's; format: in vivo; conditions: for Haemagglutination titre: mice fed 50-100 mg/Kg body weight, rabbit RBC antigen day 7 and 14, highest serum dilution showing agglutination
# Protocol: A. For Humorral Immune Response • a) Treating the animals with the combination of the three coumarinolignoids at the dose in the range of 50-200 mg/Kg body weight for a period of 1-28 days. • b) Administering the animals with an antigen in the range of 0.01 to 0.3 ml of 5×10^9 RBC's in combination with a pharmaceutically acceptable diluent in a range 20-80% of the antigen used on day 7 for the initiation of antibody production. • c) Administering the same dosage regimen of the antigen and diluent as a booster dose after a period of 3-14 days from the day of primary immunization. • d) Withdrawing the blood using a capillary from the orbital plexus of the animal after a period of 18-25 days from the day of primary immunization. • e) Assessing the antibody production in the serum separated and isolated on 28th day through haemagglutination in a 96 well ‘U’ bottom microtitre plate at a titre ranging from 32-2048.
# Normal healthy outbred mice, maintained under standard conditions (22±3° C., 12:12 hr light:dark cycle, pellet diet and soaked Bengal gram), 5 animals in each group were taken for the experiment. The animals were fed with the test compound at the dose rate of 50-100 mg/Kg body weight for a period of 1-28 days. Freshly collected and washed rabbit RBC's was used as an antigen which was used to immunize the animal on day 7 followed by the booster dose on day 14th. Blood was collected from the orbital plexus after 21 days and assessed for haemaggluting (HA) titre. The haemagglutination was carried upon using a serial two-fold dilution of the serum in 96 well ‘U’ bottom microtitre plates. The highest dilution showing visible agglutination was taken as the antibody titre.
# [2] = test system: Hepatocytes (primary cultured liver cells); test: SGOT quantification of cell culture supernatant of liver cells damaged with d-galactosamine; format: cell-based; conditions: compounds @ 1 μg/ml, 48-72 hrs incubation
# Protocol: Hepatocytes were isolated and cultured into tissue culture plates and damaged with d-galactosamine @ 1 μg/ml and the cells were treated with the compounds under question. After 48-72 hrs of incubation the cell culture supernatant was taken for the estimation of SGOT levels which is indicative of the damage of the primary cultured liver cells.
Compound,humorral immunity HA titre ([1]; 256 in normal control),Haemagglutination titre ([1]; animal 1),Haemagglutination titre ([1]; animal 2),Haemagglutination titre ([1]; animal 3),Haemagglutination titre ([1]; animal 4),Haemagglutination titre ([1]; animal 5),Haemagglutination titre ([1]; animal 7),SGOT levels of the cell culture supernatant ([2]; d-Galactosamine concentration 0.01),SGOT levels of the cell culture supernatant ([2]; d-Galactosamine concentration 0.1),SGOT levels of the cell culture supernatant ([2]; d-Galactosamine concentration 1),SGOT levels of the cell culture supernatant ([2]; d-Galactosamine concentration 10)
"O=P1(N(CCCl)CCCl)NCCCO1 (centres unmarked) [Ledoxan, Cyclophosphamide]",0,0,0,0,0,0,0,–,–,–,–
N[C@H]1C(O)O[C@H](CO)[C@H](O)[C@@H]1O (stereo partly drawn) [d-galactosamine],–,–,–,–,–,–,–,286,325,420,455
